Where “and” joins values, the source holds several entries; their conditions need not be identical. Equal values may be shown once.
Conditions: Liquid, Vibrating tube method

CCCCCC(=O)OCC(COC(=O)CCCCC)(COC(=O)CCCCC)COC(=O)CCCCC [pentaerythritol tetrahexanoate]
Conditions | mass density
343.16 K, 33002 kPa | 980 kg/m3
343.16 K, 33028 kPa | 980.1 kg/m3
343.16 K, 33054 kPa | 980.2 kg/m3
343.16 K, 33085 kPa | 980.1 kg/m3
343.16 K, 33111 kPa | 980.2 kg/m3
343.16 K, 33138 kPa | 980.1 kg/m3
343.16 K, 33170 kPa | 980.2 kg/m3
343.16 K, 33198 kPa | 980.2 kg/m3
343.16 K, 33224 kPa | 980.2 kg/m3
343.16 K, 33250 kPa | 980.3 kg/m3
343.16 K, 33277 kPa | 980.2 kg/m3
343.16 K, 33310 kPa | 980 kg/m3
343.16 K, 33337 kPa | 980.3 kg/m3
343.16 K, 33364 kPa | 980.3 kg/m3
343.16 K, 33397 kPa | 980.3 kg/m3
343.16 K, 33424 kPa | 980.3 kg/m3
343.16 K, 33458 kPa | 980.4 kg/m3
343.16 K, 33486 kPa | 980.4 kg/m3
343.16 K, 33515 kPa | 980.2 kg/m3
343.16 K, 33551 kPa | 980.4 kg/m3
343.16 K, 33582 kPa | 980.5 kg/m3
343.16 K, 33613 kPa | 980.4 kg/m3
343.16 K, 33643 kPa | 980.7 kg/m3
343.16 K, 33678 kPa | 980.5 kg/m3
343.16 K, 33700 kPa | 980.5 kg/m3
343.16 K, 33718 kPa | 980.5 kg/m3
343.16 K, 33738 kPa | 980.5 kg/m3
343.16 K, 33761 kPa | 980.6 kg/m3
343.16 K, 33781 kPa | 980.6 kg/m3
343.16 K, 33806 kPa | 980.6 kg/m3
343.16 K, 33826 kPa | 980.6 kg/m3
343.16 K, 33846 kPa | 980.6 kg/m3
343.16 K, 33868 kPa | 980.6 kg/m3
343.16 K, 33883 kPa | 980.7 kg/m3
343.16 K, 33898 kPa | 980.7 kg/m3
343.16 K, 33914 kPa | 980.8 kg/m3
343.16 K, 33932 kPa | 980.6 kg/m3
343.16 K, 33948 kPa | 980.7 kg/m3
343.16 K, 33966 kPa | 980.7 kg/m3
343.16 K, 33982 kPa | 980.5 kg/m3
343.16 K, 33995 kPa | 980.7 kg/m3
343.16 K, 34005 kPa | 980.7 kg/m3
343.16 K, 34016 kPa | 980.8 kg/m3
343.16 K, 34026 kPa | 980.7 kg/m3
343.16 K, 34034 kPa | 980.8 kg/m3
343.16 K, 34035 kPa | 980.7 kg/m3
343.16 K, 34036 kPa | 980.8 kg/m3
343.16 K, 34037 kPa | 980.9 kg/m3 and 980.6 kg/m3
343.16 K, 34047 kPa | 980.7 kg/m3
343.16 K, 34048 kPa | 980.7 kg/m3
343.16 K, 34058 kPa | 980.8 kg/m3
343.16 K, 34091 kPa | 980.7 kg/m3
343.16 K, 34101 kPa | 980.8 kg/m3
343.16 K, 34114 kPa | 980.8 kg/m3
343.16 K, 34125 kPa | 980.7 kg/m3
343.16 K, 34137 kPa | 980.8 kg/m3
343.16 K, 34151 kPa | 980.7 kg/m3
343.16 K, 34163 kPa | 980.8 kg/m3
343.16 K, 34177 kPa | 980.7 kg/m3
343.16 K, 34189 kPa | 980.8 kg/m3
343.16 K, 34190 kPa | 980.9 kg/m3
343.16 K, 34198 kPa | 980.8 kg/m3
343.16 K, 34203 kPa | 980.8 kg/m3
343.16 K, 34211 kPa | 980.7 kg/m3
343.16 K, 34217 kPa | 980.8 kg/m3
343.16 K, 34223 kPa | 980.8 kg/m3
343.16 K, 34231 kPa | 980.7 kg/m3
343.16 K, 34237 kPa | 980.9 kg/m3
343.16 K, 34243 kPa | 980.7 kg/m3
343.16 K, 34248 kPa | 980.8 kg/m3
343.16 K, 34251 kPa | 980.9 kg/m3
343.16 K, 34253 kPa | 980.9 kg/m3
343.16 K, 34254 kPa | 980.8 kg/m3 and 980.9 kg/m3
343.16 K, 34255 kPa | 980.8 kg/m3 and 980.9 kg/m3
343.16 K, 34256 kPa | 980.8 kg/m3 and 980.9 kg/m3 and 980.7 kg/m3
343.16 K, 34257 kPa | 980.9 kg/m3
343.16 K, 34258 kPa | 980.8 kg/m3 and 980.7 kg/m3
343.16 K, 34259 kPa | 981 kg/m3
343.16 K, 34262 kPa | 980.9 kg/m3
343.16 K, 34263 kPa | 980.8 kg/m3 and 980.9 kg/m3
343.16 K, 34264 kPa | 980.9 kg/m3
343.16 K, 34265 kPa | 980.9 kg/m3 and 980.8 kg/m3
343.16 K, 34266 kPa | 980.8 kg/m3 and 980.9 kg/m3
343.16 K, 34267 kPa | 980.8 kg/m3 and 981 kg/m3 and 980.9 kg/m3
343.16 K, 34268 kPa | 980.8 kg/m3 and 980.9 kg/m3
343.16 K, 34269 kPa | 980.8 kg/m3 and 980.9 kg/m3
343.16 K, 34270 kPa | 980.9 kg/m3 and 980.8 kg/m3
343.16 K, 34271 kPa | 980.8 kg/m3
343.16 K, 34272 kPa | 981 kg/m3
343.16 K, 34273 kPa | 980.9 kg/m3
343.16 K, 34274 kPa | 980.9 kg/m3
343.16 K, 34275 kPa | 980.8 kg/m3
343.16 K, 34276 kPa | 980.9 kg/m3
343.16 K, 34277 kPa | 980.9 kg/m3
343.16 K, 34278 kPa | 980.9 kg/m3
343.16 K, 34279 kPa | 980.8 kg/m3
343.16 K, 34283 kPa | 980.9 kg/m3
343.16 K, 34284 kPa | 980.9 kg/m3 and 980.8 kg/m3 and 981 kg/m3
343.16 K, 34285 kPa | 980.9 kg/m3
343.16 K, 34286 kPa | 980.8 kg/m3
343.16 K, 34287 kPa | 980.9 kg/m3 and 981 kg/m3
343.16 K, 34288 kPa | 980.9 kg/m3
343.16 K, 34289 kPa | 980.9 kg/m3
343.16 K, 34290 kPa | 980.8 kg/m3 and 980.9 kg/m3
343.16 K, 34291 kPa | 980.9 kg/m3
343.16 K, 34292 kPa | 980.9 kg/m3
343.16 K, 34293 kPa | 980.9 kg/m3
343.16 K, 34294 kPa | 980.9 kg/m3
343.16 K, 34295 kPa | 980.8 kg/m3
343.16 K, 34296 kPa | 980.9 kg/m3
343.16 K, 34297 kPa | 980.9 kg/m3
343.16 K, 34298 kPa | 980.9 kg/m3 and 981 kg/m3
343.16 K, 34300 kPa | 980.9 kg/m3
343.16 K, 34301 kPa | 980.8 kg/m3
343.16 K, 34303 kPa | 980.9 kg/m3
343.16 K, 34305 kPa | 980.9 kg/m3
343.16 K, 34307 kPa | 980.9 kg/m3
343.16 K, 34310 kPa | 981 kg/m3
343.16 K, 34312 kPa | 980.8 kg/m3
343.16 K, 34315 kPa | 980.9 kg/m3
343.16 K, 34319 kPa | 980.9 kg/m3
343.16 K, 34322 kPa | 980.9 kg/m3
343.16 K, 34326 kPa | 980.9 kg/m3
343.16 K, 34332 kPa | 980.8 kg/m3
343.16 K, 34336 kPa | 980.8 kg/m3
343.16 K, 34342 kPa | 980.9 kg/m3
343.16 K, 34350 kPa | 980.9 kg/m3
343.16 K, 34356 kPa | 980.9 kg/m3
343.16 K, 34361 kPa | 980.9 kg/m3
343.16 K, 34363 kPa | 980.9 kg/m3
343.16 K, 34369 kPa | 981 kg/m3
343.17 K, 21206 kPa | 972.4 kg/m3
343.17 K, 30224 kPa | 978.4 kg/m3
343.17 K, 30254 kPa | 978.3 kg/m3
343.17 K, 30283 kPa | 978.4 kg/m3
343.17 K, 30312 kPa | 978.5 kg/m3
343.17 K, 30333 kPa | 978.4 kg/m3
343.17 K, 30358 kPa | 978.5 kg/m3
343.17 K, 30380 kPa | 978.5 kg/m3
343.17 K, 30402 kPa | 978.4 kg/m3
343.17 K, 30428 kPa | 978.5 kg/m3
343.17 K, 30449 kPa | 978.5 kg/m3
343.17 K, 30471 kPa | 978.6 kg/m3
343.17 K, 30497 kPa | 978.5 kg/m3
343.17 K, 31456 kPa | 979.2 kg/m3

From the NIST ThermoML archive (doi:10.1021/je060271a)
